# Where a name gives a salt, the structure may show the parent alone. Read-outs that look alike come from different tables or passages of the source.
# Legend:
# [1] = tested on: Ishikawa endometrial adenocarcinoma cells; experiment: Cell proliferation assay in endometrial cells; assay type: cell-based; conditions: 7 days, 750 μM VPA; for cell numbers / proliferation: 10 nM OH-Tam, 100 pM or 1 nM E2
# Text: (§1) Cell Culture and Ligands. MCF-7 cells were provided by C. Walker (MD Anderson Cancer Center, Houston, Tex.) and were routinely cultured in IMEM (Invitrogen, Grand Island, N.Y.) with 10% fetal calf serum (FBS) (Hyclone, Logan, Utah). Ishikawa cells were also provided by C. Walker and cultured in DMEM/Ham's F12 with 10% FBS. T47-D cells were obtained from ATCC and were routinely cultured in DMBM (Invitrogen) plus 10% FBS. ZR-75-1 cells were provided by B. Hahn (University of California, San Francisco) and were routinely cultured in RPMI (Invitrogen) plus 10% PBS. MCF-7/neo and MCF-7/HER2 (clone 18) cells were also obtained from B. Hahn and cultured in DMEM plus 10% FBS. MCF-7aro cells were provided by S. Chen (Beckham Research Institute of the City of Hope) and routinely grown in DMEM/Ham's F12 plus 10% FBS. For all experiments cells were switched to phenol red-free media containing 5% charcoal/dextran-stripped FBS (Hyclone) for 3-5 days prior to start of the experiment. Cells were treated with ligands in media containing 2-5% stripped PBS for the indicated times.
# (§2) Cell Proliferation Assays. Cells growing in 24-well dishes were treated with ligands in triplicate for the indicated times. Cells were trypsinized and counted electronically with a Coulter Counter (Coulter Electronics, Hialeah, Fla.). Alternatively, cell proliferation was measured using a fluorescent DNA-binding assay, CyQUANT (Invitrogen) in which cells were treated with ligands in triplicate in 96-well plates for the indicated times and assayed according to the manufacturer's instructions.
# Bcl-2 = experiment: Immunoblotting of Bcl-2 protein in MCF-7 cells; assay type: cell-based, human; conditions: 72 hours
# Method: (§3) Immunoblotting. MCF-7 cells were grown in 100 mm dishes and treated with ligands in triplicate. […] Whole cell extracts were separated by SDS-PAGE, transferred to a nitrocellulose membrane, and immunoblotted using standard methods with the following antibodies: ERα, Bik, Bcl-2, and β-tubulin (all from Santa Cruz Biotechnology, Santa Cruz, Calif.) and cyclin D1 (Zymed, San Francisco, Calif.).
# [2] = tested on: endogenous ERα at estrogen response element (ERE); experiment: ERE-Luc luciferase reporter gene transfection assay; conditions: for ERE-Luc transcription: 24 hours
# Method: MCF-7 cells growing in 12-well dishes were transfected with ERE-Luc and β-galactosidase reporter gene using Lipofectamine 2000 transfection reagent (Invitrogen) according to manufacturer's instructions. […] Five hours after transfection, cells were treated in triplicate with ligands and harvested 24 hours later using a lysis buffer containing 100 MM TrisHCl, 1% Triton-X100 and 1.μ/ml dithiothreitol. Reporter gene activity was measured using assay kits for Luciferase (Promega, Madison, Wis.) and β-galactosidase (Tropix, Bedford, Mass.), according to manufacturer's instructions.
# MCF-7 cells [3] = experiment: Cell proliferation assay (Coulter Counter or CyQUANT fluorescent DNA-binding assay) in MCF-7 cells; assay type: cell-based, human; conditions: for E2-stimulated growth, antiestrogen alone / E2-stimulated growth, antiestrogen plus VPA: 100 pM E2, 7 days, fulvestrant at higher concentrations; for E2-stimulated growth, antiestrogen plus VPA: plus 750 μM VPA; for effect of HDAC inhibitor on antiproliferative action of tamoxifen: range of HDAC inhibitor doses with 10 nM OH-Tam
# Text: as §1, §2
# MCF-7 cells [4] = experiment: Annexin V apoptosis assay; assay type: cell-based, human; conditions: 72 hours, absence of E2
# Method: Apoptosis. MCF-7 cells growing on coverslips were treated with ligands for 72 hours and unfixed cells were assayed with the Annexin-V-FLOUS Staining kit (Roche), according to manufacturer's instructions. Total cell number was determined by counting nuclei stained with Hoescht 33342 (Roche). Fluorescence was analyzed using a Zeiss Axioplan fluorescent microscope (Zeiss, Thomwood, N.Y.).
# MCF-7aro cells = experiment: Cell proliferation assay in MCF-7 cells with stably expressed aromatase; assay type: cell-based, human; conditions: 5 days
# Text: as §1, with “Cells were treated with ligands in media containing 2-5% stripped PBS for the indicated times.” left out
# as §2, with “Cells growing in 24-well dishes were treated with ligands in triplicate for the indicated times.” left out
# ERα = experiment: Immunoblotting of ERα protein in MCF-7 cells; assay type: cell-based, human; conditions: 72 hours
# Method: as §3
# (§4) Changes in protein expression from endogenous genes in MCF-7 cells treated for 72 hours with ligands was also evaluated.
# MCF-7/HER2 cells = experiment: Cell proliferation assay in MCF-7 cells overexpressing HER2/neu; assay type: cell-based, human; conditions: 10 pM E2, 750 μM VPA and/or 10 nM OH-Tam, 7 days
# Text: as §1, with “Cells were treated with ligands in media containing 2-5% stripped PBS for the indicated times.” left out
# as §2, with “Cells growing in 24-well dishes were treated with ligands in triplicate for the indicated times.” left out
# MCF-7 cells [5] = experiment: Flow cytometry cell cycle distribution (DNA content); assay type: cell-based, human; conditions: 48 hours
# Method: Flow cytometry. MCF-7 cells growing in 100 mm dishes were treated with ligands for 48 hours, then trypsinized and fixed in 70% ethanol and stained with […] propidium iodide (Roche, Nutley, N.J.). DNA content was obtained by measuring 10,000 events on a FACScalibur flow cytometer (BD Biosciences, San Jose, Calif.). The percentages of cells in each phase of the cell cycle were determined using the Watson (Pragmatic) model analyzed by FlowJo flow cytometry software (Treestar, San Carlos, Calif.).
# cyclin D1 = experiment: Immunoblotting of cyclin D1 protein in MCF-7 cells; assay type: cell-based, human; conditions: 72 hours
# Method: as §3, §4
# MCF-7 cells [6] = experiment: Phase microscopy of cell number and morphology; assay type: cell-based, human; conditions: 6 days, 100 pM E2, 750 μM VPA, 10 nM OH-Tam
smiles,measurement,setting,value
"C[C@]12CC[C@@H]3c4ccc(O)cc4CC[C@H]3[C@@H]1CC[C@@H]2O [E2, 17β-estradiol]",cell numbers / proliferation,[1],increase was observed in cell numbers
same,Bcl-2 protein expression,Bcl-2,upregulated
same,stimulation of ERE-Luc transcription,"[2]; 100 pM E2, 24 hours",approximately 13 fold
"O=C(c1ccc(OCCN2CCCCC2)cc1)c1c(-c2ccc(O)cc2)sc2cc(O)ccc12 [Raloxifene, raloxifene]","E2-stimulated growth, antiestrogen alone",MCF-7 cells [3],substantially decreased E2-stimulated growth
same,"E2-stimulated growth, antiestrogen plus VPA",MCF-7 cells [3],VPA further enhanced its inhibitory effect
"CC(/C=C/C(=O)NO)=C\[C@@H](C)C(=O)c1ccc(N(C)C)cc1 [TSA, trichostatin A]",IC50,"MCF-7 cells [3]; 100 pM E2, day 7, read-out: IC50 (cell proliferation), HDAC inhibitor alone",0.051 µM
same,effect of HDAC inhibitor on antiproliferative action of tamoxifen,"MCF-7 cells [3]; 100 pM E2, day 7",enhanced the antiproliferative action of tamoxifen
same,IC50,"MCF-7 cells [3]; read-out: IC50 (cell proliferation), co-treatment with tamoxifen, with 10 nM OH-Tam, 100 pM E2, day 7",0.032 µM
same,ERE-Luc transcription,"[2]; high concentrations, alone",induced transcription
"CCCC(CCC)C(=O)O [VPA, valproic acid sodium salt (sodium 2-propylpentanoate)]",E2-induced cell proliferation,"MCF-7 cells [3]; 750 μM VPA, 10 nM OH-Tam, 6-7 days, counted electronically",inhibition by VPA was even more dramatic
same,effect of VPA on tamoxifen inhibition of cell proliferation,"MCF-7 cells [3]; 750 μM VPA, OH-Tam 0 to 500 nM, 100 pM E2, day 6",enhanced the relative efficacy of tamoxifen at all doses tested
same,cell proliferation,"MCF-7 cells [3]; 750 μM VPA, without E2, 6-7 days, counted electronically",inhibited MCF 7 cells
same,inhibition at 750 µM,"MCF-7 cells [3]; Homo sapiens, MCF7, 144 h, 750 μM VPA alone, 100 pM E2, day 6, fluorescent DNA-binding assay, read-out: inhibition of E2-stimulated cell proliferation",25%
same,IC50,"MCF-7 cells [3]; Homo sapiens, MCF7, 168 h, 100 pM E2, day 7, doses of VPA ranging from 50 μM to 5 M, read-out: IC50 (cell proliferation), HDAC inhibitor alone",800 µM
same,IC50,"MCF-7 cells [3]; Homo sapiens, MCF7, 168 h, read-out: IC50 (cell proliferation), tamoxifen co-treatment, with 10 nM OH-Tam, 100 pM E2, day 7",500 µM
same,slowing of breast cancer cell growth in combination,"MCF-7 cells [3]; VPA 750 μM with rapamycin 0.05 nM, picropodophyllin 100 nM, tamoxifen 100 nM",combines effectively
same,slowing of breast cancer cell growth in combination,"MCF-7 cells [3]; VPA 750 μM with rapamycin […], gefitinib 1 μM, with and without tamoxifen 100 nM",combines effectively
same,effect of HDAC inhibitor on antiproliferative action of tamoxifen,"MCF-7 cells [3]; 100 pM E2, day 7",enhanced the action of tamoxifen
same,effect of VPA on E2- and tamoxifen-induced proliferation,[1],equally antagonized the proliferative effect of E2 and tamoxifen
same,cell numbers / proliferation,[1],dramatically inhibited proliferation
same,"AnnexinV positive cells (apoptotic index), % of total cell population",MCF-7 cells [4],approximately 1.37%
same,"testosterone-induced proliferation, VPA with letrozole","MCF-7aro cells; 750 μM VPA, regardless of the letrozole dose tested",inhibited proliferation more than that observed with letrozole alone
same,ERα protein expression,ERα; only observed in the absence of E2,slightly downregulated ERα protein expression
same,increased ERα expression seen with tamoxifen treatment,"ERα; VPA with tamoxifen, absence of E2",attenuated the increased ERα expression
same,cell proliferation,MCF-7/HER2 cells,inhibited by VPA
same,addition of VPA to tamoxifen on E2-induced cell cycle progression,MCF-7 cells [5]; E2 present,did not yield a detectable change
same,cell cycle distribution,MCF-7 cells [5]; E2 present,had no effect
same,cell cycle distribution,MCF-7 cells [5]; absence of E2,induced a small arrest in the G1 phase
same,cyclin D1 expression,cyclin D1,did not alter cyclin D1 expression
same,cell number and morphology by phase microscopy,MCF-7 cells [6],fewer cells as well as an increased number of floating cells
same,Bcl-2 protein expression,Bcl-2,did not have any effect on Bcl-2 expression either alone or with tamoxifen
same,ERE-Luc transcription,"[2]; 750 μM VPA, alone or with 10 nM OH-Tam",unable to activate transcription alone or in the presence of tamoxifen
same,ERE-Luc transcription,"[2]; high concentrations, alone",induced transcription
same,E2-induced ERE-Luc transcriptional activity,"[2]; high dose of VPA alone, in the presence of E2",inhibited E2-induced transcriptional activity
NC(=O)N1c2ccccc2C=Cc2ccccc21 [carbamazepine],slowing of breast cancer cell growth in combination,"MCF-7 cells [3]; carbamazepine 50 μM with rapamycin 2 nM, picropodophyllin 100 nM, tamoxifen 10 nM",combines effectively
"C[C@]12CC[C@@H]3c4ccc(O)cc4C[C@@H](CCCCCCCCC[S+]([O-])CCCC(F)(F)C(F)(F)F)[C@H]3[C@@H]1CC[C@@H]2O (stereo partly drawn) [fulvestrant, Fulvestrant]","E2-stimulated growth, antiestrogen alone",MCF-7 cells [3],decreased E2-induced proliferation
same,"E2-stimulated growth, sub-saturating fulvestrant plus VPA",MCF-7 cells [3]; fulvestrant 1 to 5 nM plus VPA,VPA enhanced the anti-proliferative effect of lower doses of fulvestrant in a dose responsive manner
same,"E2-stimulated growth, antiestrogen plus VPA",MCF-7 cells [3],VPA did not further add to its inhibitory effect
N#Cc1ccc(C(c2ccc(C#N)cc2)n2cncn2)cc1 [letrozole],testosterone-induced proliferation,MCF-7aro cells; 1 nM testosterone,inhibited testosterone-induced proliferation in a dose responsive manner

# Reference: patent US20080085874A1, “SMALL MOLECULE POTENTIATOR OF HORMONAL THERAPY FOR BREAST CANCER” (The Regents of the University of California, priority 2006, published 2008)
